Assay results from patent US20260200979A1, “PEPTIDE FOR CARTILAGE REGENERATION, AND USES THEREOF” (CAREGEN CO., LTD., priority 2022, published 2026).
Ends that are not written are not given here.

Test system: human-derived chondrocytes (C28/I2, human chondrocyte cell line)
Assay: CCK-8 cytotoxicity assay
Type: cell-based
Conditions: C28/I2 cells, different concentrations, 3 days, 450 nm
Description: The cytotoxicity of Peptide-1 or Peptide-2 upon addition to human-derived chondrocytes (C28/I2, human chondrocyte cell line) was analyzed using a CCK-8 assay.
Specifically, human-derived chondrocytes were seeded in a 96-well plate at a density of 3×10^3 cells/well and cultured in DMEM medium (cat. 11995-065, Gibco) for 24 hours. […] Meanwhile, as a negative control group, an experimental group to which the peptide was not added was used.

Row | Substance | cytotoxicity (CCK-8 activity)
1 | KFLIK [Peptide-2, KFLIK] | did not exhibit toxicity
2 | PYYRI [Peptide-1, PYYRI] | did not exhibit toxicity
